PubChem BioAssay (NCI)
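In this assay, cells in 96-well plates receive the compound at five concentrations for 48 hours. Endpoints are linearly interpolated between the surrounding concentrations. TGI: concentration producing complete growth inhibition.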

Assays:
Test in all cases: NCI anticancer screen, dose series, 48 h
[1] = tested on: HCT-15 colon
[2] = tested on: HS 578T breast
[3] = tested on: NCI-H522 lung
[4] = tested on: OVCAR-3 ovarian
[5] = tested on: RXF 393 renal
[6] = tested on: SK-MEL-28 melanoma
[7] = tested on: SNB-19 CNS
[8] = tested on: TK-10 renal
[9] = tested on: UO-31 renal
[10] = tested on: HOP-18 NSCLC
[11] = tested on: XF 498 CNS

| SMILES | TGI [1] | TGI [2] | TGI [3] | TGI [4] | TGI [5] | TGI [6] | TGI [7] | TGI [8] | TGI [9] | TGI [10] | TGI [11] |
| --- | --- | --- | --- | --- | --- | --- | --- | --- | --- | --- | --- |
| OCCCc1ccc2c(c1)[C@H](CO)[C@@H](c1ccc(O)cc1)O2 | > 100 µM | 38.6 µM | > 100 µM | > 100 µM | > 100 µM | > 100 µM | > 100 µM | > 100 µM | > 100 µM | – | – |
| Cc1ccc(/C=C2/N=C(N/N=C\C(O)C(O)C(O)C(O)CO)NC2=O)cc1 (configuration not stated) | > 100 µM | > 100 µM | > 100 µM | > 100 µM | > 100 µM | > 100 µM | > 100 µM | > 100 µM | > 100 µM | – | – |
| O=C(CN1C(=O)CC(c2ccccc2)(c2ccccc2)C1=O)N1CCN(CCO)CC1 | > 100 µM | > 100 µM | > 100 µM | > 100 µM | > 100 µM | > 100 µM | > 100 µM | > 100 µM | > 100 µM | – | – |
| Cn1c2ccccc2c2c(=S)c3ccccc3ccc21 | > 100 µM | > 100 µM | > 100 µM | > 100 µM | > 100 µM | > 100 µM | > 100 µM | > 100 µM | > 100 µM | – | – |
| Nc1ncc2c(n1)-c1ccccc1OC2N1CCCC1 (configuration not stated) | > 100 µM | > 100 µM | > 100 µM | > 100 µM | > 100 µM | > 100 µM | > 100 µM | > 100 µM | > 100 µM | – | – |
| C=C(CN(C)C)C(=O)c1ccc(C(=O)C(=C)CN(C)C)cc1 | > 100 µM | – | > 100 µM | > 100 µM | > 100 µM | > 100 µM | > 100 µM | > 100 µM | > 100 µM | > 100 µM | > 100 µM |
| CC1(C)C=CC(=O)C(O)C(C)(C)C1=O (configuration not stated) | > 100 µM | > 100 µM | 89.4 µM | 79.6 µM | > 100 µM | > 100 µM | > 100 µM | > 100 µM | > 100 µM | – | – |
| CO/N=C(/C(=O)OC)c1ccccc1COc1ccccc1C(F)(F)F | > 100 µM | > 100 µM | 56.3 µM | > 100 µM | > 100 µM | > 100 µM | > 100 µM | > 100 µM | > 100 µM | – | – |
| CNc1[nH]c(=S)nc2sc3c(c12)CCCC3 | > 75 µM | > 75 µM | > 75 µM | > 75 µM | > 75 µM | > 75 µM | > 75 µM | > 75 µM | > 75 µM | – | – |
